Data on three compounds can be found in PMC2151593 (The Journal of General Physiology, 2006).

One data set has as its target Shaker T449F (Drosophila melanogaster, UniProt P08510, C301S/C308S/DEL6-46/T449F). It is filed as cell-based.
Data set [1] has as its target T1, Shaker Thr449 (wild type) (Drosophila melanogaster, UniProt P08510, C301S/C308S/DEL6-46). The data set is described as follows: Extracellular TEA block of voltage-clamped potassium currents, Shaker with Thr. It is filed as cell-based. To be noted: Thr at 449 relative to Phe; ΔΔG = RT ln(K i,X/K i,Phe).
The next data set relates to Shaker T449X, X = 4F-Phe. It is filed as cell-based. As to conditions: 4F-Phe at 449 relative to Phe; ΔΔG = RT ln(K i,X/K i,Phe).
Data set [2] has as its system Shaker T449X, X = 3,5F-Phe. The data set is classed as cell-based. To be noted: 3,5F-Phe at 449 relative to Phe; ΔΔG = RT ln(K i,X/K i,Phe).
Data set [3] has as its system Shaker T449X, X = 3,4,5F-Phe. The data set is classed as cell-based. To be noted: 3,4,5F-Phe at 449 relative to Phe; ΔΔG = RT ln(K i,X/K i,Phe).
For another data set, the system named is Shaker T449X, X = Cha. It is filed as cell-based.
The test system of data set [4] is Shaker, fluorinated derivatives of Phe449. The data set is described as follows: Voltage dependence of TEA block, all fluorinated derivatives of Phe449. The data set is classed as cell-based.
Data set [5] concerns KcsA. Description: TEA block of KcsA. As to conditions: higher than for Shaker T449F. It is filed as biochemical, Streptomyces lividans.
Data set [6] deals with T1, Shaker Thr449 (wild type). To be noted: ref Heginbotham and MacKinnon, 1992; cited from earlier work.
The test system of another data set is Shaker Tyr449. To be noted: ref Heginbotham and MacKinnon, 1992; cited from earlier work.
Data set [7] has as its target KcsA. To be noted: read-out: K i for TEA block; KcsA (Tyr82); ref Heginbotham et al., 1999; cited from earlier work.
The conditions of data set [8]: benzene compared with hexafluorobenzene; ref Leo et al., 1971; cited from earlier work.

Consider `CC[N+](CC)(CC)CC` [TEA, tetraethylammonium], for which the ΔΔG was 0 kcal/mol at Shaker T449F (Phe at 449 (reference), ΔΔG = RT ln(K i,X/K i,Phe), RT 0.58 kcal/mol); 2.58 kcal/mol in [1]; 1.23 kcal/mol with Shaker T449X, X = 4F-Phe; 2.78 kcal/mol in data set [2]; 3.54 kcal/mol in data set [3]; 3.75 kcal/mol in the data set with Shaker T449X, X = Cha (Cha at 449 relative to Phe, ΔΔG = RT ln(K i,X/K i,Phe)). Also, the “effect on TEA affinity (decrease relative to Phe)” value in the data set with Shaker T449X, X = Cha (nonaromatic residue Cha at 449) is 640 fold. For the same compound, the “voltage dependence of block” value in [4] is given as 2–8%. Also, the “K i for TEA block of KcsA relative to Shaker T449F” value with KcsA [5] is recorded as around 10 fold. Moreover, the “fraction of the transmembrane electric field sensed by TEA” value is given as 19% in data set [6] and 4% in the data set on Shaker Tyr449. Further, the Ki at KcsA [7] is 3.2 mM.

With `CC[As+](CC)(CC)CC` [TEAs, tetraethylarsonium], the “factor by which TEAs is a weaker blocker (larger inhibitory constant) than TEA” value on Shaker T449F (Shaker T449F, unpublished data) is given as around 25 fold.

As to `Fc1c(F)c(F)c(F)c(F)c1F` [hexafluorobenzene], in [8], the “logP (water/octanol partition)” value is reported as “nearly identical”.
